Values after ≈ are worked out from the molar mass of the structure shown. Like-named read-outs stand apart in the source and are kept apart here.
Tests used:
[1] = system: Aerobacter aerogenes; test: In vitro minimal inhibitory concentration, Aerobacter aerogenes; format: cell-based; settings: free base; yeast beef broth medium, pH 7.4; read-out: MIC
Description: (§1) In Table III below is set forth the in vitro minimal inhibitory concentration of gentamicin B, gentamicin B1 and gentamicin X all in the free base form against a variety of gram positive and gram negative microorganisms. The experiments were carried out in a yeast beef broth medium at pH 7.4.

[2] = system: Bacillus subtilis; test: In vitro minimal inhibitory concentration, Bacillus subtilis; format: cell-based; settings: free base; yeast beef broth medium, pH 7.4; read-out: MIC
Description: as §1

[3] = system: Escherichia coli; test: In vitro minimal inhibitory concentration, Escherichia coli; format: cell-based; settings: free base; yeast beef broth medium, pH 7.4; read-out: MIC
Description: as §1

[4] = system: Klebsiella pneumoniae; test: In vitro minimal inhibitory concentration, Klebsiella pneumoniae; format: cell-based; settings: free base; yeast beef broth medium, pH 7.4; read-out: MIC
Description: as §1

[5] = system: Pseudomonas aeruginosa; test: In vitro minimal inhibitory concentration, Pseudomonas aeruginosa; format: cell-based; settings: free base; yeast beef broth medium, pH 7.4; read-out: MIC
Description: as §1

[6] = system: Sarcina lutea; test: In vitro minimal inhibitory concentration, Sarcina lutea; format: cell-based; settings: free base; yeast beef broth medium, pH 7.4; read-out: MIC
Description: as §1

[7] = system: Staphylococcus aureus; test: In vitro minimal inhibitory concentration, Staphylococcus aureus; format: cell-based; settings: free base; yeast beef broth medium, pH 7.4; read-out: MIC
Description: as §1

[8] = system: Streptococcus pyogenes; test: In vitro minimal inhibitory concentration, Streptococcus pyogenes; format: cell-based; settings: free base; yeast beef broth medium, pH 7.4; read-out: MIC
Description: as §1

[9] = system: Shigella sp. M324; test: In vitro minimal inhibitory concentration, Shigella sp. M324; format: cell-based; settings: free base; yeast beef broth medium, pH 7.4
Description: as §1

[10] = system: Staphylococcus aureus Gray; test: Protective activity in mice, Staphylococcus aureus Gray infection; format: in vivo; settings: sc, subcutaneous one hour after infection, survivors at 48 hours, read-out: PD50
Description: (§2) Infected non-treated controls die in about 18 to 24 hours. Generally 5-7 dose levels are administered to mice weighing about 20 grams in groups of 7-10.

[11] = system: Staphylococcus aureus W; test: Protective activity in mice, Staphylococcus aureus W infection; format: in vivo; settings: sc, subcutaneous one hour after infection, survivors at 48 hours, read-out: PD50
Description: as §2

[12] = system: Staphylococcus aureus Smith; test: Protective activity in mice, Staphylococcus aureus Smith infection; format: in vivo; settings: sc, subcutaneous one hour after infection, survivors at 48 hours, read-out: PD50
Description: as §2

[13] = system: Streptococcus pyogenes C; test: Protective activity in mice, Streptococcus pyogenes C infection; format: in vivo; settings: sc, subcutaneous one hour after infection, survivors at 48 hours, read-out: PD50
Description: as §2

[14] = system: Salmonella paratyphi B; test: Protective activity in mice, Salmonella paratyphi B infection; format: in vivo; settings: Salmonella enterica, sc, subcutaneous one hour after infection, survivors at 48 hours, read-out: PD50
Description: as §2

[15] = system: Pseudomonas aeruginosa SC; test: Protective activity in mice, Pseudomonas aeruginosa SC infection; format: in vivo; settings: subcutaneous one hour after infection, survivors at 48 hours, read-out: PD50
Description: as §2

[16] = Acute toxicity in mice; settings: mouse, in vivo
Description: The acute toxicity of gentamicin B, gentamicin B1 and gentamicin X is determined in male CF-1 (Carworth Farms) mice weighing about 20 grams each.

[17] = system: Trichomonas vaginalis; test: In vitro activity against Trichomonas vaginalis; format: cell-based; settings: Trichomonas vaginalis; for MIC: read-out: Minimal 99% Suppression Level; for MBC: read-out: Minimal Cidal Level
Text: In Table VI below is set forth the in vitro activity of the compounds of this invention against T. vaginalis. The test procedure used was substantially as described by R. J. Schnitzer on pages 289-331 in Experimental Chemotherapy, Volume 1, Academic Press, New York (1963).

[18] = Chronic toxicity (ataxia) in cats after daily subcutaneous dosing; format: in vivo
Text: There appears to be a causal relationship between high doses of amino-glycoside type antibiotics given over an extended period of time and vestibular damage wherein one of the early manifestations is ataxia. […] Moreover, they may be used at such dosages for a time interval substantially beyond that normally required to eliminate infection without causing ataxia; and with minimal, if any, toxic manifestations. Thus, gentamicin B and gentamicin B1 represent a substantial improvement over antibiotics of this class (amino-glycoside) that are currently in use.

[19] = system: Entamoeba histolytica; test: Stated activity against Entamoeba histolytica
[20] = system: Histomonas meleagridis; test: Stated activity against Histomonas meleagridis
[21] = system: Syphacia obvelata; test: Stated anthelmintic activity against pinworms such as Syphacia obvelata
[22] = system: Escherichia coli SC; test: Protective activity in mice, Escherichia coli SC infection; format: in vivo; settings: subcutaneous one hour after infection, survivors at 48 hours, read-out: PD50
Description: as §2

[23] = system: Entamoeba hystolytica; test: Activity against Entamoeba hystolytica (MIC and minimal cidal concentration); format: cell-based; settings: 48 hours
[24] = system: Syphacia obvelata; test: Anthelmintic activity in vivo against Syphacia obvelata in mice; design: species or system male Millerton mice
[25] = system: Trichomonas vaginalis; test: Stated activity against Trichomonas vaginalis
[26] = system: Trichomonas foetus; test: Stated activity against Trichomonas foetus
[27] = system: protozoa; settings: cited from earlier work
[28] = system: helminths; settings: cited from earlier work

CNC1C(O)C(OC2C(N)CC(N)C(OC3OC(C(C)N)C(O)C(O)C3O)C2O)OCC1(C)O (stereo not drawn) [Gentamicin B1]
MIC [1]: 0.08 µg/mL (≈ 0.161 µM)
MIC [2]: 3 µg/mL (≈ 6.04 µM)
MIC [3]: 0.08 to 0.3 µg/mL (≈ 0.161 to 0.604 µM)
MIC [4]: 3 µg/mL (≈ 6.04 µM)
MIC [5]: 0.08 µg/mL (≈ 0.161 µM)
MIC [6]: 0.3 µg/mL (≈ 0.604 µM)
MIC [7]: 0.3 to 3 µg/mL (≈ 0.604 to 6.04 µM)
MIC [8]: 3 µg/mL (≈ 6.04 µM)
MIC [9]: 5 µg/mL (≈ 10.1 µM)
ED50 [10]: 30 mg/kg
ED50 [11]: 50 mg/kg
ED50 [12]: 2.5 mg/kg
ED50 [13]: 18 mg/kg
ED50 [14]: 4 mg/kg
ED50 [15]: 2 mg/kg
LD50 ([16]; ip): 1600 mg/kg
LD50 ([16]; iv): 230 mg/kg
LD50 ([16]; po): > 250 mg/kg
LD50 ([16]; sc): > 1500 mg/kg
MIC ([17]; 24 hours): 25 µg/mL (≈ 50.3 µM)
MBC ([17]; 24 hours): > 250 µg/mL
MIC ([17]; 48 hours): 10 to 25 µg/mL (≈ 20.1 to 50.3 µM)
MBC ([17]; 48 hours): 25 µg/mL (≈ 50.3 µM)
Average No. Days to become ataxic ([18]; 40 mg/kg/day subcutaneous): 108.0 days
Average No. Days to become ataxic ([18]; 60 mg/kg/day subcutaneous): 69.0 days
Average No. Days to become ataxic ([18]; 240 mg/kg/day subcutaneous): 21.0 days
period of administration to cause impairment of the "righting reflex" and ataxia (in words) ([18]; high doses): required substantially longer periods of administration at high doses
ataxic potential (in words) ([18]; see Table VIII): low ataxic potential
antiprotozoal activity (in words) [19]: to a lesser extent
antiprotozoal activity (in words) [20]: to a lesser extent
anthelmintic activity (in words) [21]: effective

CNC1C(O)C(OC2C(N)CC(N)C(OC3OC(CO)C(O)C(O)C3N)C2O)OCC1(C)O (stereo not drawn) [Gentamicin X]
MIC [2]: 0.03 µg/mL (≈ 0.0622 µM)
MIC [3]: 0.3 µg/mL (≈ 0.622 µM)
MIC [4]: 0.75 µg/mL (≈ 1.55 µM)
MIC [5]: 0.3 to 0.75 µg/mL (≈ 0.622 to 1.55 µM)
MIC [7]: 0.08 to 0.75 µg/mL (≈ 0.166 to 1.55 µM)
MIC [8]: 0.3 to 0.75 µg/mL (≈ 0.622 to 1.55 µM)
ED50 [10]: 4 mg/kg
ED50 [15]: 7 mg/kg
ED50 [22]: 1.5 mg/kg
LD50 ([16]; ip): > 1000 mg/kg
LD50 ([16]; iv): 225 mg/kg
MIC ([17]; 48 hours): 2.5 µg/mL (≈ 5.18 µM)
MBC ([17]; 48 hours): 10 µg/mL (≈ 20.7 µM)
MBC [23]: 7 µg/mL (≈ 14.5 µM)
MIC ([23]; read-out: minimal inhibitory concentration): 4 µg/mL (≈ 8.29 µM)
anthelmintic effect (in words) ([24]; 62 mg/kg/day): partially effective
% Infected ([24]; 62 mg/kg/day, 0.05% in diet): 83%
Mean Worm Burden ([24]; 62 mg/kg/day, 0.05% in diet): 27
anthelmintic effect (in words) ([24]; 310 mg/kg/day): totally effective
% Infected ([24]; 310 mg/kg/day, 0.25% in diet): 0%
Mean Worm Burden ([24]; 310 mg/kg/day, 0.25% in diet): 0
anthelmintic activity (in words) ([24]; male Millerton mice): exhibit anthelmintic activity
antiprotozoal activity (in words) [25]: effective
antiprotozoal activity (in words) [19]: effective
antiprotozoal activity (in words) [20]: effective
antiprotozoal activity (in words) [26]: effective
anthelmintic activity (in words) [21]: effective

NC[C@@H]1O[C@H](O[C@H]2[C@@H](O)[C@H](O[C@@H]3[C@@H](O)[C@H](N)C[C@H](N)[C@H]3O[C@H]3O[C@H](CO)[C@@H](O)[C@H](O)[C@H]3N)O[C@@H]2CO)[C@H](N)[C@@H](O)[C@@H]1O [paromomycin]
antiprotozoal activity (in words) [27]: known to exhibit antiprotozoal activity to any substantial degree
anthelmintic activity (in words) [28]: exhibit anthelmintic activity in reasonably useful dosage ranges
